Consider eleven compounds from article PMC8920107 (ADMET & DMPK, 2020).

Data set [1] has as its system HSA.
For data set [2], the system named is AGP. The following applies: cited from earlier work.
For data set [3], the system named is AGP. Description: Literature AGP binding by equilibrium dialysis. A general note: In equilibrium dialysis free small molecules cross a membrane that holds back macromolecules.
On the set-up of data set [4]: method as in PMID 11472245. The note with it: calibration set of compounds, predefined values; cited from earlier work.
Data set [5] is described as follows: Chromatographic Hydrophobicity Index (CHI) lipophilicity at three pHs, C-18 gradient HPLC. It is filed as physicochemical. The protocol: Gemini NX C-18(2) 5 um columns with dimensions of 3 x 50 mm (Phenomenex Ltd. Macclesfield, UK) were used for the determination of the Chromatographic Hydrophobicity Index (CHI) and the CHIlogD values. […] An acetonitrile linear gradient was used from 0 to 100 %. The acetonitrile concentration reached 100 % in 3.5 min. The 100 % acetonitrile mobile phase was maintained for an additional 1 min before it was returned to 0 % at 4.7 min. The cycle time of the gradient run was 6 min, with an additional equilibration time of 1 min before the next injection. The error in the retention time measurements is ±0.005 min in general after repeated injections.

The nature of data set [6]: Phospholipid binding at pH 7.4 on Immobilized Artificial Membrane (IAM) HPLC column. It is filed as physicochemical. The note with it: pH 7.4, standard 6 min protocol.
Experimental: The phospholipid-binding was measured using an IAM PC.DD2 column with dimensions of 100 x 4.6 mm (Regis Technologies Inc., Morton Grove, IL, USA). The gradient retention times of the compounds were measured using a 50 mM ammonium acetate starting mobile phase with the pH adjusted to 7.4. The mobile phase flow rate was 1.5 mL/min. […] The cycle time was 6 min plus an additional 1 min equilibration time was applied while the injector prepared for the next injection. The gradient retention times were calibrated with the acetophenone homologues for which the CHI IAM values have been established using isocratic measurements [26]. The Chromatographic Hydrophobicity Index on the IAM column [CHI(IAM)] approximates to the acetonitrile concentration in the mobile phase when the compound elutes. CHI(IAM) values above 45 indicate strong phospholipid binding. Repeating the retention time measurements provided the error only in the third digit of the minute (±0.005).
Data set [7] concerns the target human serum albumin (HSA) (Homo sapiens, UniProt P02768). Briefly: Albumin binding by biomimetic HPLC on Chiralpak HSA column. The protocol: (§1) The protein binding measurements were carried out on Chiralpak HSA and Chiralpak AGP columns with the dimensions of 3 x 50 mm with 5 um particle size stationary phase (Chiril Technologies Europe, France). The mobile phase was 50 mM ammonium acetate adjusted to pH 7.4 with a flow rate of 1.2 mL/min. […] The cycle time was 6 min with an additional 1 min re-equilibration time.
(§2) The cycle time was 8 min plus an additional 1 min re-equilibration time.

For data set [8], the system named is α-1-acid-glycoprotein (AGP). Briefly: Glycoprotein binding by biomimetic HPLC on Chiralpak AGP column. As for the experimental part: as §1, §2
Data set [9] can be described thus: Human plasma protein binding by rapid equilibrium dialysis (RED). It is filed as in vitro ADME. The following applies: 100 % pooled human plasma, pH 7.4, 37 °C. As for the experimental part: The test compounds were prepared in 100 % pooled human plasma. The measurement was performed using equilibrium dialysis with the two compartments separated by a semi-permeable membrane. The plasma solution was added to one side of the membrane while buffer (pH 7.4) was added to the other side. The system was allowed to reach equilibrium at 37 °C. Compound concentration on both sides of the membrane was measured by LC-MS/MS, and the fraction of unbound compound calculated. Calibration standards were prepared in plasma and buffer. Test compound incubations were performed in triplicate. A control compound was included in each experiment. The solutions for each batch of compounds were combined into two groups (protein-free and protein-containing). Cassette analysed by LC-MS/MS using two sets of calibration standards for protein-free solutions (7 points) and protein-containing solutions (7 points). The experiments were carried out at Cyprotex Discovery Ltd (UK) and repeated at Sygnature Discovery Ltd (UK) laboratories using their generic LC/MS method. The unbound fraction (fu) is calculated from the concentration of the test compound in the protein-containing side Cp and the protein-free side Cf based on the formula: […]

Data set [10] in a line: Estimated total plasma protein binding from biomimetic HPLC data (model equation). The note with it: from % HSA, % AGP and lipophilicity, standard 6 min protocol. The source says:
(§3) Thus, the regression coefficients in linear regression analysis are meaningful and reflect to the physiological proportion of the albumin and phospholipids in the body. […] They are based on the calibrated retention times obtained on C-18, IAM, Chiralpak HSA and Chiralpak AGP columns.

Data set [11] in a line: Estimated brain tissue binding and brain to blood ratio from biomimetic HPLC data (model equations). The following applies: standard 6 min protocol data.
Source text: as §3

A short description of data set [12]: Estimated lung tissue binding from biomimetic HPLC data (model equation). The note with it: standard 6 min protocol data.
Source text: as §3

Data set [13] in a line: Estimated volume of distribution, unbound volume of distribution and drug efficiency from biomimetic HPLC data. The note with it: standard 6 min protocol data.
Source text: as §3

Data set [14] can be described thus: Estimated cell partition coefficient from IAM binding (model equation). The note with it: standard 6 min protocol data.
Source text: as §3

Data set [15] is described as follows: Phospholipidotic potential (CAD-likeness) from CHI values. The following applies: CHI (IAM) + (CHI at pH 10.5 – CHI at pH 7.4).
The conditions of data set [16]: cited from earlier work.
Data set [17] concerns HSA. The following applies: cited from earlier work; for % HSA: calibration drugs, equilibrium dialysis literature % binding.
The conditions of data set [18]: calibration compounds, literature value, no reference given; cited from earlier work.
Setting [19] is: calibration drugs, equilibrium dialysis literature % binding.
[20] abbreviates: standard 6 min IPA gradient up to 35 %, pH 7.4, racemate.
Setting [21] is: standard 6 min IPA gradient, racemate.

The structures appear in SMILES notation. Where two headings read alike, the source gives them in different places.

Sequence of human serum albumin (HSA) (P02768 25-609): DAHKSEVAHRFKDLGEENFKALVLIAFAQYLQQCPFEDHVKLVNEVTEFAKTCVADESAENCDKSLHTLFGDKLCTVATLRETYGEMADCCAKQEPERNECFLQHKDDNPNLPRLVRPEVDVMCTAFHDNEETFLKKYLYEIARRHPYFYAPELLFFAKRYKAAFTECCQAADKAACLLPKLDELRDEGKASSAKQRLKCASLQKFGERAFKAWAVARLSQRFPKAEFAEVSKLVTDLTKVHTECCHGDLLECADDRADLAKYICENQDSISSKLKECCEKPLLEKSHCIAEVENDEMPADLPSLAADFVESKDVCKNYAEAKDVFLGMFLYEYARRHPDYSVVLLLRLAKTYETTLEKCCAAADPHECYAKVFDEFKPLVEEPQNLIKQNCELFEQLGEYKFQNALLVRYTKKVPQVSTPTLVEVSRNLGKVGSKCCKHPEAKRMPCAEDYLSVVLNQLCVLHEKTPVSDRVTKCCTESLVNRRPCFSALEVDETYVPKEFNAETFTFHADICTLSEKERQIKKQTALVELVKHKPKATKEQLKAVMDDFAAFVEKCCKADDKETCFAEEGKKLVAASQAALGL

As for `COc1ccc2c(c1)c(CC(=O)O)c(C)n2C(=O)c1ccc(Cl)cc1` [Indomethacin], the “log k (HSA)” value in the data set on HSA [1] amounted to 1.8. The “% AGP” value in the data set with AGP [2] (setting [19]) is listed as 56%. In addition, the “log k (AGP)” value with AGP [3] is reported as 0.1.

`CCC(=O)c1ccccc1` [Propiophenone]: in data set [4], the “CHI at pH 2.6” value was 77.4, the “CHI at pH 7.4” value is on record as 77.4 and the “CHI at pH 10.5” value is reported as 77.4.

As to `COc1cc2c(c(OC)c1OC)-c1ccc(OC)c(=O)cc1[C@@H](NC(C)=O)CC2` [Colchicine], in data set [4], the “CHI at pH 2.6” value is on record as 43.9, the “CHI at pH 7.4” value is reported as 45.0 and the “CHI at pH 10.5” value is 43.9.

Turning to `CCN(CCO)CCCC(C)Nc1ccnc2cc(Cl)ccc12` (centres unmarked) [HCQ, hydroxy-chloroquine], in [5] (Gemini NX C-18(2) HPLC column, pH 7.4, C-18 gradient HPLC, racemate not resolved, read-out: CHI log D (pH 7.4)), the chromatographic logD was determined as 0.66. In addition, the chromatographic logP in data set [5] (from pH 10.5 mobile phase, read-out: CHI log P) was 2.13. Further, the “log k (IAM)” value in [6] was 2.5. Also, the fraction unbound in data set [7] (human, Chiralpak HSA HPLC column (immobilised human serum albumin), pH 7.4) was 0.181; in data set [9], 0.693; in data set [10] (human, read-out: Estimated % plasma protein binding (PPB) (converted)), 0.07. Moreover, the “% HSA bound” value is given as 84.9% in [7] (setting [20]) and 40% in the data set with HSA [17] (equilibrium dialysis method). Also, in data set [7] (setting [21]), the “log k (HSA)” value stood at 0.7. Moreover, the “% AGP bound” value is 89.0% in data set [8] (setting [20]) and 34% in the data set with AGP [2] (equilibrium dialysis method). In addition, the “log k (AGP)” value in data set [8] (setting [21]) was 0.9. Moreover, the “Estimated % plasma protein binding (PPB)” value in data set [10] is reported as 93.4%. Also, the “%BTB” value in data set [11] (brain tissue binding) is recorded as 97.6%. Also, the “est log k BB” value in data set [11] is recorded as 0.8. Also, the Kp at 0.1 h in data set [11] (read-out: Brain to plasma) is 2.8. Further, in data set [12], the “% LTB” value is recorded as 93.9%. Further, the results for the Vd in data set [13] (human), in data set [13] and in data set [16] (healthy volunteers) were 5.8 L/kg, 5.1 L/kg and “above 4000 L/kg”, respectively. Also, the Vdu in data set [13] is 38.8 L/kg. Also, in data set [14], the Kpcell is on record as 7.3. In addition, the “Phospholipidotic potential (CAD-likeness)” value in [15] turned out to be 73.6. Besides, the “volume of distribution described in the literature” value in data set [16] is given as “over 100 L/kg”.

On to `COC(=O)C1=C(C)NC(C)=C(C(=O)OCCN(C)Cc2ccccc2)C1c1cccc([N+](=O)[O-])c1` (centres unmarked) [Nicardipine], for which the “calculated % binding, HSA 5 % IPA” value in data set [7] (isocratic 5 % IPA, 1.2 mL/min, partial calibration set) is given as 6 (96 %). Besides, the “calculated % binding, HSA 15 % IPA” value in data set [7] (isocratic 15 % IPA, 1.2 mL/min) was 1.05 (95 %). Also, in data set [8] (isocratic 5 % IPA, 1.2 mL/min), the “calculated % binding, AGP 5 % IPA” value is reported as >8 min (>98 %). For the same compound, the “calculated % binding, AGP 8 % IPA” value in [8] (isocratic 8 % IPA, 1.2 mL/min) is given as 5.63 (98 %). Moreover, the “calculated % binding, AGP 15 % IPA” value in [8] (isocratic 15 % IPA, 1.2 mL/min) is 5.0 (96 %). Further, the “log k (HSA)” value in the data set on HSA [1] was 1.2. For the same compound, the “% PPB (binds to plasma proteins)” value in data set [18] was “nicardipine (96 % PPB)”. Further, the “% AGP” value in the data set with AGP [2] (setting [19]) is given as 87%. The “log k (AGP)” value with AGP [3] was 0.8.

Regarding `CCCC(=O)c1ccccc1` [Butyrophenone], in [4], the “CHI at pH 2.6” value is recorded as 87.3, the “CHI at pH 7.4” value is 87.5 and the “CHI at pH 10.5” value is reported as 87.3.

As to `CC(=O)Nc1ccc(O)cc1` [Paracetamol], the “log k (HSA)” value in the data set on HSA [1] is on record as -0.8. Also, the “% HSA” value with HSA [17] is 14.0%. Further, in the data set with AGP [2] (setting [19]), the “% AGP” value is recorded as 3.2%. In the data set with AGP [3], the “log k (AGP)” value is -1.5.

`COc1cc(Cc2cnc(N)nc2N)cc(OC)c1OC` [Trimethoprim]: in the data set on HSA [1], the “log k (HSA)” value is reported as -0.2. The “% HSA” value with HSA [17] was 37.6%. The “% AGP” value with AGP [2] (setting [19]) is 46.2%. The “log k (AGP)” value with AGP [3] is reported as -0.1.

In the case of `CCCCC(=O)c1ccccc1` [Valerophenone], in data set [4], the “CHI at pH 2.6” value is listed as 96.4, the “CHI at pH 7.4” value is 96.20 and the “CHI at pH 10.5” value is 96.36.

As to `CC(=O)CC(c1ccccc1)c1c(O)c2ccccc2oc1=O` (centres unmarked) [Warfarin], in the data set with HSA [1], the “log k (HSA)” value came to 1.5. Further, the “% AGP” value in the data set with AGP [2] is given as 83.2%. Also, the “log k (AGP)” value in the data set with AGP [3] worked out at 0.7.

For `c1ccc2[nH]cnc2c1` [Benzimidazole], in data set [4], the “CHI at pH 2.6” value is recorded as 6.3, the “CHI at pH 7.4” value was 34.3 and the “CHI at pH 10.5” value is 30.6.
